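Assay format: 96-well plates, 48-hour exposure. GI50 is the concentration that inhibits growth by half. TGI denotes the concentration required for complete inhibition of growth.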
Legend:
Experiment in all cases: DTP human tumour cell line panel, 48 h
[1] = system: MALME-3M melanoma
[2] = system: HOP-92 NSCLC
[3] = system: HS 578T breast
[4] = system: UACC-62 melanoma
[5] = system: PC-3 prostate
[6] = system: EKVX NSCLC
[7] = system: SNB-19 CNS
[8] = system: SF-295 CNS
[9] = system: A549 NSCLC
[10] = system: HCT-15 colon
[11] = system: NCI-H460 lung
[12] = system: UACC-257 melanoma
[13] = system: SK-MEL-2 melanoma
[14] = system: NCI-H226 lung
[15] = system: HOP-62 NSCLC
[16] = system: CCRF-CEM leukemia
[17] = system: SF-539 CNS
[18] = system: TK-10 renal
[19] = system: SW-620 colon
[20] = system: SF-268 CNS
[21] = system: RPMI-8226 leukemia
[22] = system: NCI/ADR-RES ovarian
[23] = system: OVCAR-3 ovarian
[24] = system: ACHN renal
[25] = system: OVCAR-4 ovarian
[26] = system: M14 melanoma
[27] = system: COLO 205 colon
[28] = system: 786-0 renal
[29] = system: MCF7 breast
[30] = system: UO-31 renal
[31] = system: SNB-75 CNS
[32] = system: HCC-2998 colon
[33] = system: KM12 colon
[34] = system: BT-549 breast
[35] = system: HCT-116 colon
[36] = system: K-562 leukemia
[37] = system: SK-OV-3 ovarian
[38] = system: SN12C renal
[39] = system: SK-MEL-28 melanoma
[40] = system: SK-MEL-5 melanoma
[41] = system: HT29 colon
[42] = system: LOX IMVI melanoma
[43] = system: IGROV1 ovarian
[44] = system: A498 renal
[45] = system: T-47D breast
[46] = system: U251 CNS
[47] = system: SR leukemia
[48] = system: DU-145 prostate
[49] = system: MOLT-4 leukemia
[50] = system: OVCAR-8 ovarian
[51] = system: MDA-MB-231 breast
[52] = system: RXF 393 renal
[53] = system: OVCAR-5 ovarian
[54] = system: HL-60(TB) leukemia
[55] = system: NCI-H23 lung
[56] = system: NCI-H522 lung
[57] = system: MDA-MB-435

CCN1CCN(c2nc(NCCCNc3ccnc4cc(Cl)ccc34)c3ccccc3n2)CC1
GI50 [1]: 1.78 µM
TGI [1]: 3.45 µM
GI50 [2]: 1.78 µM
TGI [2]: 4.64 µM
GI50 [3]: 2.24 µM
TGI [3]: 6.22 µM
GI50 [4]: 1.87 µM
TGI [4]: 3.58 µM
GI50 [5]: 3.09 µM
TGI [5]: 14.5 µM
GI50 [6]: 3.03 µM
TGI [6]: 14.4 µM
GI50 [7]: 2.96 µM
TGI [7]: 11.5 µM
GI50 [8]: 1.66 µM
TGI [8]: 3.37 µM
GI50 [9]: 2.84 µM
TGI [9]: 11.9 µM
GI50 [10]: 2.6 µM
TGI [10]: 10.9 µM
GI50 [11]: 2.14 µM
TGI [11]: 5.1 µM
GI50 [12]: 2.01 µM
TGI [12]: 3.97 µM
GI50 [13]: 2.14 µM
TGI [13]: 4.88 µM
GI50 [14]: 4.97 µM
TGI [14]: 26 µM
GI50 [15]: 1.79 µM
TGI [15]: 4.91 µM
GI50 [16]: 2.88 µM
TGI [16]: 10.3 µM
GI50 [17]: 1.71 µM
TGI [17]: 3.34 µM
GI50 [18]: 2.17 µM
TGI [18]: 4.79 µM
GI50 [19]: 2.36 µM
TGI [19]: 7.63 µM
GI50 [20]: 2.59 µM
TGI [20]: 10.7 µM
GI50 [21]: 2.12 µM
TGI [21]: 6.04 µM
GI50 [22]: 15.2 µM
TGI [22]: 32.3 µM
GI50 [23]: 2.9 µM
TGI [23]: 10.3 µM
GI50 [24]: 2.04 µM
TGI [24]: 4.54 µM
GI50 [25]: 2.12 µM
TGI [25]: 9.57 µM
GI50 [26]: 1.86 µM
TGI [26]: 3.63 µM
GI50 [27]: 1.66 µM
TGI [27]: 3.46 µM
GI50 [28]: 2.18 µM
TGI [28]: 5.82 µM
GI50 [29]: 1.93 µM
TGI [29]: 11.1 µM
GI50 [30]: 1.49 µM
TGI [30]: 2.97 µM
GI50 [31]: 1.78 µM
TGI [31]: 6.88 µM
GI50 [32]: 1.87 µM
TGI [32]: 6.09 µM
GI50 [33]: 2.74 µM
TGI [33]: 11.4 µM
GI50 [34]: 3.45 µM
TGI [34]: 13.6 µM
GI50 [35]: 2.25 µM
TGI [35]: 6.53 µM
GI50 [36]: 2.23 µM
TGI [36]: 7.14 µM
GI50 [37]: 2.98 µM
TGI [37]: 9.23 µM
GI50 [38]: 2.6 µM
TGI [38]: 11.5 µM
GI50 [39]: 1.91 µM
TGI [39]: 3.9 µM
GI50 [40]: 1.74 µM
TGI [40]: 3.11 µM
GI50 [41]: 2.6 µM
TGI [41]: 7.22 µM
GI50 [42]: 1.61 µM
TGI [42]: 3.13 µM
GI50 [43]: 2.36 µM
TGI [43]: 10.9 µM
GI50 [44]: 11.3 µM
TGI [44]: 23.5 µM
GI50 [45]: 1.87 µM
TGI [45]: 5.5 µM
GI50 [46]: 2.66 µM
TGI [46]: 7.17 µM
GI50 [47]: 1.29 µM
TGI [47]: 5.44 µM
GI50 [48]: 3.05 µM
TGI [48]: 13.2 µM
GI50 [49]: 2.07 µM
TGI [49]: 9.04 µM
GI50 [50]: 3.5 µM
TGI [50]: 12.9 µM
GI50 [51]: 2.08 µM
TGI [51]: 5.14 µM
GI50 [52]: 1.51 µM
TGI [52]: 3.29 µM
GI50 [53]: 3 µM
TGI [53]: 11 µM
GI50 [54]: 2.18 µM
TGI [54]: 4.25 µM
GI50 [55]: 4.29 µM
TGI [55]: 16.9 µM
GI50 [56]: 2.92 µM
TGI [56]: 6.14 µM
GI50 [57]: 1.92 µM
TGI [57]: 3.53 µM

— PubChem BioAssay (NCI)
